What all share (assay type): functional
Assay [1] concerns Pseudomonas aeruginosa. The assay can be described thus: Antimicrobial activity against Pseudomonas aeruginosa at 2000 ug after 24 hr by disk diffusion method relative to control.
Assay [2] concerns Klebsiella pneumoniae. The assay can be described thus: Antimicrobial activity against Klebsiella pneumoniae at 2000 ug after 24 hr by disk diffusion method relative to control.
The subject of assay [3] is Escherichia coli. The assay is described as follows: Antimicrobial activity against Escherichia coli at 2000 ug after 24 hr by disk diffusion method relative to control.
Assay [4] relates to Bacillus subtilis. The assay can be described thus: Antimicrobial activity against Bacillus subtilis at 2000 ug after 24 hr by disk diffusion method relative to control.
Assay [5] has as its system Staphylococcus aureus. The assay is described as follows: Antimicrobial activity against Staphylococcus aureus at 2000 ug after 24 hr by disk diffusion method relative to control.
In assay [6] the test system is Staphylococcus aureus. The assay can be described thus: Antimicrobial activity against Staphylococcus aureus at 2000 ug after 24 hr by disk diffusion method. The note with it: read-out: IZ.
In assay [7] the test system is Bacillus subtilis. The assay can be described thus: Antimicrobial activity against Bacillus subtilis at 2000 ug after 24 hr by disk diffusion method. The note with it: read-out: IZ.
The test system of assay [8] is Escherichia coli. The assay is described as follows: Antimicrobial activity against Escherichia coli at 2000 ug after 24 hr by disk diffusion method. The note with it: read-out: IZ.
Assay [9] concerns Pseudomonas aeruginosa. The assay is described as follows: Antimicrobial activity against Pseudomonas aeruginosa at 2000 ug after 24 hr by disk diffusion method. Particulars: read-out: IZ.
In assay [10] the test system is Klebsiella pneumoniae. The assay can be described thus: Antimicrobial activity against Klebsiella pneumoniae at 2000 ug after 24 hr by disk diffusion method. Particulars: read-out: IZ.

Activity calls are given as the source filed them. No cut-off for these calls is given here.

With `COc1ccc(/N=N/c2cc(/C=N/Cc3ccccc3)c(O)c(OC)c2)cc1`, the inhibition entry in the assay with Pseudomonas aeruginosa [1], in the assay with Klebsiella pneumoniae [2] and with Escherichia coli [3] was “inactive” each time.
Take `COc1ccc(/N=N/c2cc(C=O)c(O)c(OC)c2)cc1`: the inhibition result in the assay with Pseudomonas aeruginosa [1], in the assay on Klebsiella pneumoniae [2] and in the assay on Escherichia coli [3] was “inactive” throughout. In addition, the “inhibition (INH)” value with Bacillus subtilis [4] and in the assay on Staphylococcus aureus [5] was 45% each time. The zone of inhibition at 2000 µg/disc in the assay with Staphylococcus aureus [6] and in the assay on Bacillus subtilis [7] was 10 mm in each case.
For `COc1ccc(/N=N/c2cc(/C=N/c3ccc(S(=O)(=O)c4cccc(/N=C/c5cc(/N=N/c6ccc(OC)cc6)cc(OC)c5O)c4)cc3)c(O)c(OC)c2)cc1`, the inhibition result in the assay on Pseudomonas aeruginosa [1], in the assay on Klebsiella pneumoniae [2] and with Escherichia coli [3] was “inactive” throughout. The entries for the “inhibition (INH)” value with Bacillus subtilis [4] and with Staphylococcus aureus [5] were 64% and 45%, respectively. Further, the zone of inhibition at 2000 µg/disc with Staphylococcus aureus [6] was 10 mm; in the assay on Bacillus subtilis [7] it was 14 mm.
For the molecule `CN[C@@H]1[C@H](O[C@H]2[C@H](O[C@H]3[C@H](O)[C@@H](O)[C@H](N=C(N)N)[C@@H](O)[C@@H]3N=C(N)N)O[C@@H](C)[C@]2(O)C=O)O[C@@H](CO)[C@H](O)[C@H]1O` [STREPTOMYCIN], the “inhibition (INH)” value in the assay on Pseudomonas aeruginosa [1] is recorded as 64%; in the assay on Klebsiella pneumoniae [2], 64%; in the assay with Bacillus subtilis [4] it was 64%; in the assay on Staphylococcus aureus [5], 45%; with Escherichia coli [3], 64%. Besides, the zone of inhibition at 2000 µg/disc in the assay on Escherichia coli [8] came out at 14 mm; in the assay with Pseudomonas aeruginosa [9], 14 mm; in the assay with Klebsiella pneumoniae [10], 14 mm; with Staphylococcus aureus [6], 10 mm; with Bacillus subtilis [7], 14 mm.
As for `COc1ccc(/N=N/c2cc(/C=N/c3cccc(O)c3)c(O)c(OC)c2)cc1`, the inhibition result in the assay on Pseudomonas aeruginosa [1], in the assay with Klebsiella pneumoniae [2] and in the assay on Escherichia coli [3] was “inactive” throughout. The “inhibition (INH)” value in the assay with Bacillus subtilis [4] and in the assay on Staphylococcus aureus [5] was 45% throughout. Further, the zone of inhibition at 2000 µg/disc with Staphylococcus aureus [6] and with Bacillus subtilis [7] was 10 mm in each case.
Turning to `COc1ccc(/N=N/c2cc(/C=N/c3cccc(C)c3)c(O)c(OC)c2)cc1`, the inhibition entry in the assay with Pseudomonas aeruginosa [1], in the assay on Klebsiella pneumoniae [2] and with Escherichia coli [3] was “inactive” each time. Also, the “inhibition (INH)” value in the assay with Bacillus subtilis [4] and in the assay on Staphylococcus aureus [5] was 45% in each case. Also, the zone of inhibition at 2000 µg/disc in the assay on Staphylococcus aureus [6] and in the assay on Bacillus subtilis [7] was 10 mm in each case.
As to `CC1(C)S[C@@H]2[C@H](NC(=O)[C@H](N)c3ccccc3)C(=O)N2[C@H]1C(=O)O`, the inhibition entry in the assay on Pseudomonas aeruginosa [1], with Klebsiella pneumoniae [2] and in the assay on Escherichia coli [3] was “inactive” throughout.
Take `COc1ccc(/N=N/c2cc(/C=N/c3cccc(OC)c3)c(O)c(OC)c2)cc1`: the inhibition entry with Pseudomonas aeruginosa [1], in the assay with Klebsiella pneumoniae [2] and in the assay on Escherichia coli [3] was “inactive” in each case. The “inhibition (INH)” value in the assay on Bacillus subtilis [4] and in the assay on Staphylococcus aureus [5] was 45% each time. The zone of inhibition at 2000 µg/disc in the assay on Staphylococcus aureus [6] and in the assay on Bacillus subtilis [7] was 10 mm throughout.
On to `COc1ccc(/N=C/c2cc(/N=N/c3ccc(OC)cc3)cc(OC)c2O)cc1`, for which the inhibition result in the assay with Pseudomonas aeruginosa [1], in the assay with Klebsiella pneumoniae [2] and with Escherichia coli [3] was “inactive” each time.
Consider `COc1ccc(/N=N/c2cc(/C=N/c3ccccc3OC)c(O)c(OC)c2)cc1`, for which the inhibition result in the assay on Pseudomonas aeruginosa [1], in the assay on Klebsiella pneumoniae [2] and in the assay with Escherichia coli [3] was “inactive” throughout.
For `COc1ccc(/N=N/c2cc(/C=N/c3ccc(Oc4cccc(/N=C/c5cc(/N=N/c6ccc(OC)cc6)cc(OC)c5O)c4)cc3)c(O)c(OC)c2)cc1`, the inhibition entry in the assay with Pseudomonas aeruginosa [1], with Klebsiella pneumoniae [2] and in the assay on Escherichia coli [3] was “inactive” each time.
Take `COc1ccc(/N=N/c2cc(/C=N/c3ccccc3)c(O)c(OC)c2)cc1`: the inhibition result in the assay with Pseudomonas aeruginosa [1], with Klebsiella pneumoniae [2] and in the assay on Escherichia coli [3] was “inactive” throughout. In addition, the “inhibition (INH)” value in the assay with Bacillus subtilis [4] and in the assay on Staphylococcus aureus [5] was 45% each time. In addition, the zone of inhibition at 2000 µg/disc in the assay with Staphylococcus aureus [6] and with Bacillus subtilis [7] was 10 mm throughout.
Regarding `COc1ccc(/N=N/c2cc(/C=N/c3ccccc3C)c(O)c(OC)c2)cc1`, the inhibition result in the assay with Pseudomonas aeruginosa [1], with Klebsiella pneumoniae [2] and in the assay with Escherichia coli [3] was “inactive” each time.

For the origin of these results see ChEMBL document CHEMBL3045098, “Petra, Osiris and Molinspiration (POM) together as a successful support in drug design: antibacterial activity and biopharmaceutical characterization of some azo Schiff bases” (2012).
